A short description of series [1]: Incubation of VP343 with human hepatic microsomes (LC-MS). It is filed as in vitro ADME. The conditions noted are these: t = 45 min. Here is the method: (§1) The metabolites' identification of VP343 was performed after incubation of the compound with hepatic microsomal preparations from mouse, dog and human origin. The assay was performed by mixing VP343 at 5; 4; 2 or 1 μM with CD1 mouse hepatic microsomes (reference MIC255030 Biopredic) at 0.5 mg/mL of protein, or Beagle dog hepatic microsomes (reference MIC257013 Biopredic) at 1 mg/mL of protein, or human hepatic microsomes (reference MIC159882 Biopredic) at 1 mg/mL of protein, together with 1 mM NADPH (reference N1630 Sigma Aldrich), a phase I reaction's cofactor, in a 0.1 M phosphate buffer pH 7.4. Samples were then incubated in a Thermomixer® (Eppendorf) at 37° C. and 300 rotations per minute. After 45 minutes of incubation, the reaction was stopped with acetonitrile (0.5 volume of the experimental incubation volume). The samples' supernatants were then separated from the microsomes by centrifugation at 20,000 g during 10 minutes (Sorvall ST 16, Thermo Fisher Scientific) before analysis by liquid chromatography coupled to mass spectrometry (LC-MS).
(§2) The analysis was performed in two steps: first, on a positive electrospray ionisation source using a Waters Acquity I class UPLC (Ultra Performance Liquid Chromatography) system coupled to a Waters triple quadrupole mass spectrometer (Xevo TQMS) and then on an orbitrap source using a Thermo Fisher UHPLC (Ultra High Performance Liquid Chromatography) system (Ultimate 3000) coupled to a Thermo Fisher orbitrap mass spectrometer (Q Exactive) to confirm the structures of the identified metabolites. VP343 and his metabolites were separated by the UPLC system with a six minutes gradient of acetonitrile containing 0.1% of formic acid in a BEH C18 column (1.7 μm, 2.1×50 mm, Waters) with a mobile phase flow rate of 0.6 mL/min.
(§3) The metabolization of VP343 was studied by incubating the compound with mouse, dog, and human hepatic microsomes. The concentration of VP343 in the microsomal preparations was measured at t=0 and at t=45 min by liquid chromatography-tandem mass spectrometry (LC-MS). […]

The nature of series [2]: Incubation of VP343 with mouse hepatic microsomes (LC-MS). It is filed as in vitro ADME. To be noted: t = 45 min. On the procedure: as §1, §2, §3
The nature of series [3]: Incubation of VP343 with dog hepatic microsomes (LC-MS). It is filed as in vitro ADME. To be noted: for VP343 residual concentration: t = 45 min. Here is the method:
as §1, §2
The metabolization of VP343 was studied by incubating the compound with mouse, dog, and human hepatic microsomes. The concentration of VP343 in the microsomal preparations was measured at t=0 and at t=45 min by liquid chromatography-tandem mass spectrometry (LC-MS). About 5% to 50% of VP343 remained after 45 min of incubation with mouse microsomes according to experiments (Table VI and FIG. 3, respectively). About 5% of VP343 remained with dog microsomes. About 40 to 55% remained with human microsomes.

The test system of series [4] is Leishmania infantum axenic amastigotes. Kind of series: Evaluation on Leishmania donovani infantum axenic amastigotes (SYBR Green I). It is filed as cell-based. The conditions noted are these: Leishmania infantum; Table II; 3 different experiments, SYBR Green I method; read-out: IC50 axenic. Here is the method:
Protocol for Evaluation on Leishmania donovani infantum Axenic Amastigotes
Amastigote forms of the parasite were suspended to yield 10^7 parasitic cells mL^−1. The maximum final compound concentration used was 100 μM. Triplicates were used for each concentration. Cultures were incubated at 37° C. for 72 h in the dark and under a 5% CO2 atmosphere, then the viability of the amastigotes was assessed using the SYBR® Green I (Invitrogen, France) incorporation method. Parasite growth was determined by using SYBR® Green I, a dye with marked fluorescence enhancement upon contact with parasite DNA. Parasites were lysed and quantified by Direct PCR-Cell Genotyping without DNA isolation protocol (Euromedex, France). 10 μL of lysed parasite solution from each well was added to 40 μL of PCR-Cell reagent containing the SYBR® green I in a qPCR plate of 96 wells, and the contents were mixed. Fluorescence was measured with Mastercycler® ep realplex (Eppendorf, France). Measured fluorescence was compared to that from the range obtained with different parasite densities. The antileishmanial activity was expressed as IC50 in μM (concentration of drug inhibiting 50% of the parasite growth, comparatively to the controls treated with the excipient only).

A short description of series [5]: VP343 metabolites' identification by LC-MS in hepatic microsome supernatants. To be noted: supernatants of mouse, dog and human hepatic microsomes incubated with VP343 for 45 min. It is filed as in vitro ADME. On the procedure: as §1, with “The samples' supernatants were then separated from the microsomes by centrifugation at 20,000 g during 10 minutes (Sorvall ST 16, Thermo Fisher Scientific) before analysis by liquid chromatography coupled to mass spectrometry (LC-MS).” left out
In each analytical system, the identification was performed in two steps. […] This means that, in a define range mass (m/z 250 to 450), each ion present in the sample should be detected. […] By adding collision energy, the products ions of the targeted metabolites were monitored to validate the supposed metabolite's structure obtained after injecting the sample in full scan mode.
To further investigate the number and nature of the metabolites, supernatants from mouse, dog and human hepatic microsomes incubated with VP343 for 45 min were analyzed by LC-MS (cf. protocol).

Series [6] has as its system L. donovani (MHOM/ET/67/HU3) amastigotes. Kind of series: In vivo antileishmanial evaluation, Leishmania donovani/Balb/c mouse model (liver parasite load). The conditions noted are these: for % reduction of parasite burden in the liver / LDU ± SD (parasites in the liver): Balb/c mice. Here is the method:
Compounds VP343, VP370 were evaluated in vivo for their antileishmanial properties by oral and intravenous route on the Leishmania donovani/Balb/c mouse model, comparatively to miltefosine, used as reference drug, according to a previously described protocol (Balaraman et al., 2015). Six- to eight-week-old Balb/c mice (Élevages Janvier, Le Genest Saint Isle, France) were infected intravenously on day 1 with 10^7 L. donovani (MHOM/ET/67/HU3) amastigotes derived from the spleen of hamsters and randomly sorted into four groups of 10 mice and one group of 12 mice as infected controls but not treated. The treatment administered orally or intravenously, started one week post-infection, on day 8, and continued for 5 consecutive days. At day 15, all groups of mice were autopsied and livers and spleens were weighed. Parasite load in the liver was determined by counting the number of amastigotes/500 liver cells in Giemsa-stained impression smears prepared from the liver and applying Stauber's formula. Three researchers counted the slides independently and the results are expressed as the mean values±SD. The parasite burden of treated groups and controls were compared using Student's t-test or the Kruskal-Wallis nonparametric analysis of variance test for comparing two groups. Significance was established for a P value<0.05.

The mark [7] stands for this setting: intravenous route, 10 mg/kg/day × 5.

The record followed here is patent US20200281873A1, “Adamantane or Bicyclic Monoterpenoid Derivatives for Use in the Treatment of Leishmaniasis” (Commissariat a l'Energie Atomique et aux Energies …, priority 2017, published 2020).

Broadly, the IC50 is the concentration needed to halve the response being measured. In the case of `COc1ccc(Br)cc1CN(C)C12CC3CC(CC(C3)C1)C2` [VP343], the VP343 residual concentration came out at 0.41 µM in series [1] (initial concentration 1 μM); 1.08 µM in series [1] (initial concentration 2 μM); 1.62 µM in series [1] (initial concentration 4 μM); 0.08 µM in series [2] (initial concentration 1 μM); 0.09 µM in series [2] (initial concentration 2 μM); 0.25 µM in series [2] (initial concentration 4 μM). Moreover, the results for the VP343 residual concentration in series [3] (initial concentration 1 μM), in series [3] (initial concentration 2 μM) and in series [3] (initial concentration 4 μM) were 0.03 µM, 0.09 µM and 0.12 µM, respectively. For the same compound, the “VP343 remaining after incubation” value in series [3] (45 min) was “About 5%”. Besides, the IC50 in series [4] was 9.29 µM. In series [5], the “Number of metabolites detected” value came out at 11. The “Activity in vivo by intravenous route (in words)” value in series [6] (10 mg/kg/day×5 intravenous, Dunn's multiple comparisons test) was “significantly active”. Moreover, the “% reduction of parasite burden in the liver” value is 42.4% in series [6] (setting [7]); 60.2% in series [6] (oral route, 10 mg/kg/day × 5); 70.8% in series [6] (oral route, 20 mg/kg/day × 5). Moreover, the “LDU ± SD (parasites in the liver)” value in series [6] (setting [7]) is 0.19 ± 0.09 ×10^8; in series [6] (oral route, 10 mg/kg/day × 5, autopsy day 15) it was 0.49 ± 0.07 ×10^9; in series [6] (oral route, 20 mg/kg/day × 5, autopsy day 15), 0.36 ± 0.08 ×10^9. The “Activity in vivo by oral route (in words)” value in series [6] (VP343 and VP370 at 20 mg/kg/day×5, VP343 also at 10 mg/kg/day×5, Tukey's multiple comparisons test) is “significantly active”.
